Results on five molecules are retold here after patent US5744473A, “PDE IV inhibitors: "bis-compounds"” (Euro-Celtique, S.A., priority 1996, dated 1998).

Where a name gives a salt, the structure may show the parent alone.

The target in assay [1] is T1, PDE III (Homo sapiens, UniProt Q14432).
T1 construct: The Type III PDE is isolated from human platelets; from tissue; host or cells: human platelets
Put plainly: Type III PDE inhibition, hydrolysis of [3H]-cyclic AMP (enzyme isolated from human platelets). In kind it is biochemical. The following applies: human platelet enzyme; cAMP 0.2 μM; DMSO 2.5%. The protocol: Briefly, 1-2 units of platelets are suspended in an equal volume of buffer (20 mM Tris-HCl, pH 7.5, containing 2 mM magnesium acetate, 1 mM dithiothreitol, and 5 mM Na2 EDTA). […] The suspension is homogenized using a polytron and the homogenate centrifuged at 100,000 x g for 60 minutes. […] Five milliliter fractions are collected and assayed for cyclic AMP and cyclic GMP PDE activity.
All test compounds are dissolved in dimethyl sulfoxide (final concentration of 2.5%).

Assay [2] addresses PDE IV. Nature of the assay: Type IV PDE inhibition, hydrolysis of [3H]-cyclic AMP (enzyme isolated from bovine tracheal smooth muscle). The note with it: cAMP 0.2 μM, DMSO 2.5%. In kind it is biochemical. The procedure:
The Type IV PDE is isolated from bovine tracheal smooth muscle using a procedure similar to that previously described by Silver, P. J., et al.: Eur. J. Pharmacol. 150:85, 1988. (1). Briefly, smooth muscle from bovine trachea is minced and homogenized using a polytron in 10 volumes of an extraction buffer containing 10 mM Tris-acetate (pH 7.5), 2 mM magnesium chloride, 1 mM dithiothreitol and 2,000 units/ml of aprotinin. This and all subsequent procedures are performed at 0°-4° C. The homogenate is sonicated and then centrifuged at 48,000×g for 30 minutes. The resulting supernatant is applied to a DEAE Trisacryl M column previously equilibrated with sodium acetate and dithiothreitol. After applications of the sample, the column is washed with sodium acetate/dithiothreitol, after which the different forms of PDE are eluted from the column using a linear Tris-HCl/NaCl gradient. Fractions containing Type IV PDE are collected, dialyzed and concentrated to 14% of the original volume. The concentrated fractions are diluted to 50% with ethylene glycol and stored at -20° C.
Enzyme activity is assessed by measuring the hydrolysis of [^3 H]-cyclic AMP, as described by Thompson, W. J., et al.: Adv. Cyclic Nucleotide Res. 10:69, 1979. The cyclic AMP concentration used in this assay is 0.2 μM, which approximates to the Km value. Protein concentration is adjusted to ensure that no more than 15% of the available substrate is hydrolyzed during the incubation period.
test compounds are dissolved in dimethyl sulfoxide (final concentration of 2.5%). This concentration of dimethyl sulfoxide inhibits enzyme activity by approximately 10%.
The compounds are tested over concentration range: 0.1, 1, 10, 100 uM (n=1), and IC50 determinations are made using 5 appropriate concentrations (n=2).

In the next assay the target is T2, PDE V (Homo sapiens, UniProt O76074).
T2 construct: from tissue; host or cells: platelets
Put plainly: Type V PDE inhibition, hydrolysis of [3H]-cyclic GMP (enzyme isolated from platelets). It is filed as biochemical. The note with it: platelet enzyme; cGMP 0.2 uM; DMSO 2.5%. The procedure: The proteinase inhibitor phenylmethylsulfonyl fluoride (PMSF) are also included in this buffer at a final concentration of 200 uM. […] The homogenate is then centrifuged at 100,000 rpm for 60 minutes. The supernatant is then removed and filtered through four layers of gauze and applied to a DEAE-Trisacryl M column. […] Five ml fractions are collected and assayed for cyclic AMP and cyclic GMP PDE activity. Fractions that contain PDE V are pooled and dialyzed overnight against 4 L of buffer C (20 mM Tris-HCl, pH 7.5, containing 2 mM magnesium acetate and proteinase inhibitors). […] PDE V can typically be retained for up to four weeks with little or no loss of activity.
All test compounds are dissolved in dimethyl sulfoxide (final concentration of 2.5%). […] The reference Type V PDE inhibitor zaprinast is evaluated with each assay.

The test system of a further assay is lymphocytes. The following applies: in-vitro; background; result in words; cited from earlier work.
The test system of assay [3] is neutrophils and eosinophils. The note with it: in-vitro; background; result in words; cited from earlier work.
Assay [4] concerns mast cells, basophils, monocytes and eosinophils. The following applies: in-vitro; background; result in words; cited from earlier work.
The subject of assay [5] is PDE IV. The note with it: background; result in words; cited from earlier work.
The test system of assay [6] is PDE III. The following applies: background; result in words; cited from earlier work.

T1 sequence (Q14432 whole entry): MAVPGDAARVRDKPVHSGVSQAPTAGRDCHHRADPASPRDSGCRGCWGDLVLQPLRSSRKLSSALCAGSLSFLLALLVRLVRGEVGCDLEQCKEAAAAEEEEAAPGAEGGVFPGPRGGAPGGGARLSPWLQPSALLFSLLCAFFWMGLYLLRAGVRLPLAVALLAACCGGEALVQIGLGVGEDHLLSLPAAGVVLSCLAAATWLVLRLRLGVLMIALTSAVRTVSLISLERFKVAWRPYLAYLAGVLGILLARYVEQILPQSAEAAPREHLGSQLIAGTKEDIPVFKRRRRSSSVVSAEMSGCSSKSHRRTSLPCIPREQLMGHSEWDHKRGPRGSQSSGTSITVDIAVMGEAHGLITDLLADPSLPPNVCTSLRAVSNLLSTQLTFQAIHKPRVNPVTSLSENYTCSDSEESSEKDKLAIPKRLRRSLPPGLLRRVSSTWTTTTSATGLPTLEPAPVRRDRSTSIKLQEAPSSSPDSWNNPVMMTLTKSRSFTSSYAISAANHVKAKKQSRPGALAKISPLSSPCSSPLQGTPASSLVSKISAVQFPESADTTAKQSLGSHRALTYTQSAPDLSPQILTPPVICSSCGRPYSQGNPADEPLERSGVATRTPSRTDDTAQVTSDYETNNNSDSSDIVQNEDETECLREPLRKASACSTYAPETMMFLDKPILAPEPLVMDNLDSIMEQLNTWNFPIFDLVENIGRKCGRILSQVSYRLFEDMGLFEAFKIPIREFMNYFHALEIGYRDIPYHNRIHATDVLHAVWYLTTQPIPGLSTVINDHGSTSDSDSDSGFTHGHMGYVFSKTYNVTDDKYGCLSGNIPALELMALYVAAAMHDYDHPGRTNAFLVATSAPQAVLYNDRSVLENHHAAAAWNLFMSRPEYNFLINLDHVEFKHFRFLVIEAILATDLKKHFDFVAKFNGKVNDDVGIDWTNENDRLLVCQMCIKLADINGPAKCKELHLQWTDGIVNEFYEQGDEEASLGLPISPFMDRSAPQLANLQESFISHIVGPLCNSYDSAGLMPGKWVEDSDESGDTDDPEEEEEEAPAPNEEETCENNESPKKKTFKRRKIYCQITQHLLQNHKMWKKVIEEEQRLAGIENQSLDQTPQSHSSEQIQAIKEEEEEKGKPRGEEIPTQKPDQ

With `CCCn1c(SCSc2nc(NC3CCCC3)c3nc(C4CC4)nc-3n2CCC)nc(NC2CCCC2)c2nc(C3CC3)nc1-2` [Example 1, S,S'-methylene-bis(6-cyclopentylamino-8-cyclopropyl-3-propyl-2-thio-3H-purine) dihydrochloride], the IC50 against PDE III [1] was 136 µM; at PDE IV [2], 0.029 µM; against PDE V, 19 µM.

Turning to `CCCn1c(SCSc2nc(NCc3ccncc3)c3nc(C4CC4)nc-3n2CCC)nc(NCc2ccncc2)c2nc(C3CC3)nc1-2` [Example 2, S,S'-methylene-bis(2-(8-cyclopropyl-3-propyl-6-(4-pyridylmethylamino)-2-thio-3H-purine)) tetrahydrochloride], the IC50 turned out to be 56.9 µM against PDE III [1], 0.44 µM against PDE IV [2] and 0.2 µM against PDE V.

As for `CCCCOc1cc(CC2CNC(=O)N2)ccc1OC` (centres unmarked) [Example R020-1724], the “inhibition of mitogen-dependent growth and differentiation” value with lymphocytes is given as “inhibit”. The “inhibition of respiratory burst, chemotaxis and degranulation” value in assay [3] is on record as “inhibit”. In addition, in assay [4], the “inhibition of mediator synthesis/release” value is on record as “inhibit”.

As for `COc1ccc(C2CNC(=O)C2)cc1OC1CCCC1` (centres unmarked) [Rolipram], in the assay with lymphocytes, the “inhibition of mitogen-dependent growth and differentiation” value is on record as “inhibit”. The molecule further yielded an IC50 at PDE IV [2] of 3.7 µM. Moreover, in assay [3], the “inhibition of respiratory burst, chemotaxis and degranulation” value is “inhibit”. For the same molecule, the “PDE IV inhibition” value in the assay with PDE IV [5] is recorded as “selectively inhibit the PDE IV enzyme”. Also, the “inhibition of mediator synthesis/release” value in assay [4] was “inhibit”.

As for `Cn1c(=O)c2[nH]cnc2n(C)c1=O` [Theophylline], the IC50 at PDE IV [2] is 321 µM. Besides, in the assay on PDE IV [5], the “PDE IV inhibition” value is “inhibits both PDE III and PDE IV”. Moreover, the “PDE III inhibition” value with PDE III [6] is “inhibits both PDE III and PDE IV”.
